# From PubChem BioAssay AID179 (DTP/NCI, 2004)
# pEC50, pIC50: −log10 of the molar value. Active and inactive are the calls of the source.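 The calls were made as follows: active = compounds giving half or more protection of infected cells from virus-caused growth loss, again on retest; inactive = the rest.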
# Tested on: CEM cells HIV-1 protection, formazan growth assay
# Assay: NCI AIDS Antiviral Assay
# Conditions: for pIC50: measured here: growth of uninfected CEM cells
# Outline: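 Screen of anti-HIV-1 activity in human CEM cells using a formazan-based growth measurement at five drug concentrations. Hits with 50% or greater protection were repeated, and confirmation required reproducible complete protection.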
Structure (SMILES),pEC50,pIC50,outcome
CCc1cc(-c2ccco2)c(C#N)c(=S)n1C1OC(COC(C)=O)C(OC(C)=O)C(OC(C)=O)C1OC(C)=O (stereo not given),< 3.70,4.10,
N#Cc1c(-c2ccco2)c2c(n(C3OC(CO)C(O)C(O)C3O)c1=S)CCCC2 (stereo not given),< 3.70,3.96,
C=C=CP(=O)(c1ccccc1)c1ccccc1,< 3.82,4.81,
CCOC(=O)C(/C=N\C(=S)Nc1c(CC)cccc1C(C)(C)C)=C(/O)c1ccccc1,< 3.70,< 3.70,
CCCCN=C(NCCCC)OC1CCCCC1,< 3.70,4.19,
Cc1ccc(C(=O)Nc2ccc(S(=O)(=O)O)c3cc(S(=O)(=O)O)cc(S(=O)(=O)O)c23)cc1NC(=O)c1cccc(NC(=O)Nc2cccc(C(=O)Nc3cc(C(=O)Nc4ccc(S(=O)(=O)O)c5cc(S(=O)(=O)O)cc(S(=O)(=O)O)c45)ccc3C)c2)c1,4.46,3.76,
CN1CCC(SC2Cc3cc(Cl)ccc3Sc3ccccc32)CC1 (stereo not given),< 4.16,4.92,
C[n+]1c(-c2ccc(/C=N\NC(=O)c3cccc(C(=O)N/N=C/c4ccc(-c5cn6ccccc6[n+]5C)cc4)c3)cc2)cn2ccccc21,5.22,4.05,
c1ccc(CCC[P+](c2ccccc2)(c2ccccc2)c2ccccc2)cc1,< 3.70,6.16,
CC(C)OP(=O)(OC(C)C)C1=NN(c2ccc([N+](=O)[O-])cc2)C(N)(N)S1,< 3.21,3.87,
CC(=O)Oc1c2c(c(OC(C)=O)c3c1n(C(C)=O)c1ccccc1n3C(C)=O)n(C(C)=O)c1ccccc1n2C(C)=O,< 4.48,5.23,
O=C1OC(=O)C2CC3C(CC12)C1(Cl)C(Cl)=C(Cl)C3(Cl)C1(Cl)Cl (stereo not given),< 3.70,5.18,
CCCCCCCC(=O)OC[C@H](C[As](=O)(O)O)OC(=O)CCCCCCC,< 3.70,5.11,
Cc1cc(=O)n(-c2ccccc2C)c(C)n1,< 3.00,< 3.00,
COc1ccc(C(=O)CCN(C)C)cc1,< 3.70,4.44,
Cc1cn(C2CC(NC(=O)NO[Si](C)(C)C(C)(C)C)C(CO[Si](C)(C)C(C)(C)C)O2)c(=O)[nH]c1=O (stereo not given),< 3.70,4.02,
O=C(NNC1=NCCCN1)Nc1ccccc1,< 3.70,< 3.70,
CC1=NN(C(=O)CC(=O)Nc2cccc(Cl)c2)C(=O)C1N=Nc1ccc(S(N)(=O)=O)cc1 (stereo not given),< 4.26,< 4.26,
C(/COc1cccnc1)=N\NC1=NCCN1,< 3.08,3.73,
CCc1cccc(CC)c1Nc1nc(-c2ccccc2-c2ccccc2)cs1,< 3.70,< 3.70,
OC1CN2CCS[C@H]2C(O)C1O (stereo not given in full),< 3.70,< 3.70,
COc1ccc(-c2cc(-c3ccccc3)c(C#N)c(=O)n2C2OC(COC(C)=O)C(OC(C)=O)C(OC(C)=O)C2OC(C)=O)cc1 (stereo not given),< 4.80,< 4.80,

Structure (SMILES),pEC50,pIC50,outcome
CCOC(=O)/C(=C\c1cccc(C(F)(F)F)c1)P(=O)(OCC)OCC,< 4.02,5.30,
O=c1[nH]c(F)nc2c1ncn2C1OC(CO)C(O)C1O (stereo not given),< 3.70,< 3.70,
Cc1cccc(NC(=O)Nc2ccccc2)n1,< 3.70,4.01,
CCOC(=O)C1(Br)C(c2ccccc2)NC(=O)NC1(C)Br (stereo not given),< 4.07,< 4.07,
O=C(CCC(=O)C1CCC/C1=N/O)Nc1ccc(Cl)cc1 (stereo not given),< 3.52,5.95,
CC1=C(O[Si](C(C)C)(C(C)C)C(C)C)C2CC1[C@@H]1C(=O)N(c3ccccc3)C(=O)[C@H]21 (stereo not given in full),< 5.19,< 5.19,
CCC[CH2][Sn]([CH2]CCC)([O]C(=O)c1cc(OC)c(OC)cc1OC)[O]C(=O)c1cc(OC)c(OC)cc1OC,< 4.40,6.11,
Cn1c(=O)cc(C=Nc2ccc(C(=O)O)cc2)c2ccccc21,< 3.70,5.88,
Cc1cn(C2CCC(/C=N\O)O2)c(=O)[nH]c1=O (stereo not given),< 3.70,< 3.70,
COC1(OC)N=C(N)C2(C#N)C(C)CC(=O)N(N(C)C)C12C#N (stereo not given),< 3.70,< 3.70,
CCOC(=O)c1ccc2c(=O)n3c(C(=O)OCC)ccc3c(=O)n12,3.79,< 3.70,
O=C(OCC(O)CO)c1c(Cl)c(Cl)c(Cl)c(Cl)c1-c1c2cc(I)c(=O)c(I)c-2oc2c(I)c(O)c(I)cc12 (stereo not given),< 3.70,5.58,
O=C(Nc1ccccc1)c1cc2cc(N=Nc3ccc(Br)cc3)ccc2oc1=O,,,inactive
O=C(NNC(=O)c1ccc([N+](=O)[O-])cc1)c1ccc([N+](=O)[O-])cc1,< 3.70,< 3.70,
CC1C2CCC3(CCC4C5(C)CCCC4(CN(CCO)C5)C3C2)C1O (stereo not given),,,inactive
c1cc2c(cc1NC1=NCCO1)CCCC2,< 3.70,5.81,
CCCCCCCCCCCCCCCCCC(=O)NCC(COP(=O)(O)O)OCC (stereo not given),< 4.67,< 4.67,
Cn1ccc(C(=O)NCCOCCNC(=O)c2ccn(C)c(=O)c2O)c(O)c1=O,< 4.30,< 4.30,
CC1(CO)CCC(n2ccc(N)nc2=O)O1 (stereo not given),4.51,< 3.70,
COc1ccc(C2=C3c4cc(OC)c(OC)cc4CCN3C(=S)SS2)cc1OC,,,inactive
COc1cccc(/C=N/[N-]C(N)=O)c1[O-].[Ni+2].[OH3+],< 3.78,7.28,
[N-]=[N+]=Nc1c(N2CCOCC2)c(Cl)nc2ccccc12,< 3.70,4.26,

Structure (SMILES),pEC50,pIC50,outcome
CN(C)CCNc1ncnc2nc(-c3ccc4ccccc4c3)[nH]c12,< 3.70,< 3.70,
Cc1ccc(N=Nc2c(N)nn3cc4c(nc23)-c2ccccc2CC4)cc1,< 4.00,< 4.00,
COc1ccc(CNc2cc(=O)n(C)c(=O)[nH]2)cc1,< 3.70,< 3.70,
N[C@@H]1C[C@H](N)c2c(Cl)sc(Cl)c21,< 3.70,3.85,
O=NNc1nc(-c2cccnc2)nc2ccccc12,< 3.70,< 3.70,
C[CH2][Pb]([CH2]C)([CH2]C)[O]C(=O)C(F)(F)F,< 3.70,4.50,
CCOC(=O)/C(C1=N[C@H](C(=O)OCC)CS1)=C(\O)c1ccccc1,< 3.84,< 3.84,
COC(=O)CC(C(C(=O)OC)C(=O)OC)N1C(=O)OC(c2ccccc2)C1c1ccccc1 (stereo not given),4.43,4.13,
O=C(NCCCNC(=O)c1ccccc1O)c1ccccc1O,< 3.70,4.16,
COc1cccc(CCCNC(=O)Cc2cc(OC)c(OC)cc2CO)c1,< 3.70,4.84,
O=C(O)CCCCCCCCCCOc1ccc(I)cc1,< 3.70,4.55,
O=C1NC(=S)S/C1=C\c1cccs1,< 4.22,< 4.22,
Cc1cccc(C2NC(=O)N3C(c4cccc(C)c4)NC(=O)N23)c1 (stereo not given),< 3.70,4.42,
CN1C(=S)CSc2ccccc21,< 3.74,< 3.74,
CC(C)[C@@]12O[C@@H]1CC13OC1[C@@H](O)CC[C@@]32O (stereo not given in full),< 3.70,< 3.70,
O=C(c1ccco1)C1CC(c2c(O)ccc3ccccc23)=NN1 (stereo not given),< 3.70,4.94,
O=C(c1ccc(O)cc1O)C1C(c2ccc(O)cc2)OC(c2ccc(O)cc2)C1C(=O)c1ccc(O)cc1O (stereo not given),,,inactive
COc1cc2c(c(OC)c1OC)-c1ccc(SC)c(=O)cc1[C@@H](NC(=O)C(F)(F)F)CC2,< 4.12,7.61,
Oc1ccc2ccccc2c1OCc1nnc(CCCCCCCCc2nnc(COc3c(O)ccc4ccccc34)n2Nc2ccccc2)n1Nc1ccccc1,< 5.70,< 5.70,
CCOP(=O)(OCC)/C(C#N)=C/c1cccn1C,4.33,3.27,
CN(C)CCc1c2c(nc3ccccc13)C(=O)c1ccccc1C2=O,< 3.70,6.03,
Cc1oc2c(c1C)S(=O)(=O)C(C#N)=C(N(C)C)N2,< 3.70,< 3.70,

Structure (SMILES),pEC50,pIC50,outcome
CSC1(Cc2ccccn2)C(=O)Nc2cccc([N+](=O)[O-])c21 (stereo not given),< 3.70,4.50,
CCCCCSSSCCCCC,< 3.70,4.46,
CC(C)(C)C1C=C(Sc2ccccc2)C(=O)O1 (stereo not given),< 3.92,4.67,
O=c1[nH]c2cc(Cl)ccc2n1C1CCN(CCCC(c2ccc(F)cc2)c2ccc(F)cc2)CC1,< 3.70,4.73,
C1=Cc2nc1c(-c1ccccc1)c1ccc([n-]1)c(-c1ccccc1)c1nc(c(-c3ccccc3)c3ccc([n-]3)c2-c2ccccc2)C=C1.[Zn+2],< 4.56,< 4.56,
Cc1n[nH]c2ccccc2c1=O,< 3.17,3.31,
CN1c2ccccc2[C@@]23CCN4CC=CC5(CCC12CC5)C43 (stereo not given in full),< 3.75,5.13,
COc1ccc(OC)c2[nH]c(CCc3nc4c(OC)ccc(OC)c4[nH]3)nc12,,,inactive
CCOC(=O)C1=C(O)c2ccc(C)cc2C(=O)C1=O,< 3.02,3.49,
O=C1CCC2(CC1CCS(=O)c1ccccc1)OCCO2 (stereo not given),< 3.70,< 3.70,
O=C1[C@@H]2C(c3ccccc3[N+](=O)[O-])=NO[C@@H]2C(=O)N1c1ccc(Cc2ccc(N3C(=O)[C@H]4C(c5ccccc5[N+](=O)[O-])=NO[C@H]4C3=O)cc2)cc1,< 4.70,< 4.70,
Cn1cnc(N2CCCC2)c(C#N)c1=O,< 3.70,< 3.70,
O=[N+]([O-])c1ccc(N=Nc2ccc(O)c3c(O)cc(S(=O)(=O)O)cc23)cc1S(=O)(=O)O,< 4.00,< 4.00,
CCCCCCCC(=O)OCC(COC(=O)C(C)(C)C)OC(=O)Cc1ccccc1 (stereo not given),< 3.60,< 3.60,
COc1ccc(C(C(N)=O)N2CCCC2)cc1 (stereo not given),< 3.70,< 3.70,
CCOC(=O)/C(=C\c1ccc(C)o1)P(=O)(OCC)OCC,< 3.10,< 4.00,
CCOC(=O)N/N=C(/N)Cc1ccccc1,< 3.70,< 3.70,
COc1ccccc1NC(=O)C1=C(C)NC(C)=C(C(=O)Nc2ccccc2OC)C1c1cccc2ccccc12,< 5.01,< 5.01,
COc1cc(SSc2cc(OC)cc([N+](=O)[O-])c2N)c(N)c([N+](=O)[O-])c1,5.35,4.81,
